Data published in patent publication US10774113B2, “Anti-infective compound” (priority 2015, dated 2020).

System: Staphylococcus aureus USA 300 (LAC)
Assay: MIC assay
Format: cell-based
Method: MIC determinations and killing assays were performed in Mueller Hinton Broth (MHB; Roth, Karlsruhe, Germany).
S. aureus RN4220, S. aureus USA300 (LAC), S. aureus USA300 (NRS384), S. aureus SA113, S. aureus Mu50, E. coli DH5α and P. aeruginosa PAO1 were grown overnight in MHB. […] All strains were incubated at 37° C. under continuous shaking. Early log-phase grown bacteria were adjusted in MHB to 1×10^6 cells/well in microtiter plates (MTP), mixed with varying concentrations of the antibiotic and incubated at 37° C. for 24 h under continuous shaking. […] The assays were performed in 96-well microtiter plates.
MIC assays for the antibiotics used in this study were performed as described above. […] Fresh MHB was inoculated 1:10,000 with an overnight culture of S. aureus USA300 LAC and was incubated at 37° C. under continuous shaking. Cells were grown to early log phase, adjusted to 1×10^6 cells/mL, and dispensed into 96-well MTPs with 100 μL per well. […] After 24 h incubation at 37° C. under continuous shaking, growth was determined with a microplate reader at an OD600 and cells from the second highest concentration of 0.25×MIC, 0.5×MIC, 1×MIC, 1.5×MIC, 2×MIC and 4×MIC from the appropriate antibiotic.

For CO[C@H]1/C=C/O[C@@]2(C)Oc3c(C)c(O)c4c(O)c(c(/C=N/N5CCN(C)CC5)c(O)c4c3C2=O)NC(=O)/C(C)=C\C=C\[C@H](C)[C@H](O)[C@@H](C)[C@@H](O)[C@@H](C)[C@H](OC(C)=O)[C@@H]1C [rifampicin], the “1×MIC against S. aureus USA300” value was 0.01 µg/mL.
